The values below come from US9725445B2, “Cycloalkyl nitrile pyrazolo pyridones as Janus kinase inhibitors” (Merck Sharp & Dohme Corp., priority 2013, dated 2017).

The target in one assay is JAK1 (Homo sapiens (Human), UniProt P23458). The experiment in a line: Jak biochemical HTRF assay, JAK1. Conditions: HTRF biochemical assay, recombinant GST-tagged catalytic domain; read-out: JAK1 IC50. For orientation: Time-resolved FRET reads energy transfer from a long-lived donor to a nearby acceptor.
The next assay deals with JAK2 (Homo sapiens (Human), UniProt O60674). The experiment in a line: Jak biochemical HTRF assay, JAK2. Conditions: HTRF biochemical assay, recombinant GST-tagged catalytic domain; read-out: JAK2 IC50.
Chain of JAK2 (O60674 849-1124): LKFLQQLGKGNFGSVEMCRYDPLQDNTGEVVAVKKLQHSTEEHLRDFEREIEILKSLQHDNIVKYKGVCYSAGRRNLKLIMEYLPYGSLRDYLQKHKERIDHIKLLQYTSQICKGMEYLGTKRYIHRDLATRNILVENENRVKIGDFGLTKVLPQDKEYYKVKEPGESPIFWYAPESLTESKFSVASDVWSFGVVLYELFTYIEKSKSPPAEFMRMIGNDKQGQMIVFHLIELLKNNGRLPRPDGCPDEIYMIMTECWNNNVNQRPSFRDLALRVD

Chain of JAK1 (P23458 875-1153): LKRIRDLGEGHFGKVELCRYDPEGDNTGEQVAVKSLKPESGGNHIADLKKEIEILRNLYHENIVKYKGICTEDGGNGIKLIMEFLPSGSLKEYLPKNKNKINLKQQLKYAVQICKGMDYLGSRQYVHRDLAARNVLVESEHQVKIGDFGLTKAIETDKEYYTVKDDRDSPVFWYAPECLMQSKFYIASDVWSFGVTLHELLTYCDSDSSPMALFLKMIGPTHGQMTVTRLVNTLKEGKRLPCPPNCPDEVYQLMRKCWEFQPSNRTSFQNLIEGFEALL

For `N#C[C@H]1CCCC[C@@H]1n1nc(Nc2ccc(-c3noc(=O)[nH]3)cc2)c2c(=O)[nH]ccc21` [Example 15-17, (1S,2S)-2-(4-oxo-3-{[4-(5-oxo-4,5-dihydro-1,2,4-oxadiazol-3-yl)phenyl]amino}-4,5-dihydro-1H-pyrazolo[4,3-c]pyridin-1-yl)cyclohexanecarbonitrile], the IC50 on JAK1 came out at 0.17 nM; on JAK2, 2.9 nM.

On to `N#C[C@H]1CCC[C@@H]1n1nc(Nc2ccnc(F)c2)c2c(=O)[nH]ccc21` [Example 3-92, (1S,2S)-2-{3-[(2-fluoropyridin-4-yl)amino]-4-oxo-4,5-dihydro-1H-pyrazolo[4,3-c]pyridin-1-yl}cyclopentanecarbonitrile], for which the IC50 on JAK1 was determined as 0.64 nM; on JAK2, 5.7 nM.

Turning to `N#C[C@H]1CCCC[C@@H]1n1nc(Nc2ccc3c(c2)CN([C@H]2CC[C@H](C(=O)O)CC2)S3(=O)=O)c2c(=O)[nH]ccc21` [Example 16-3, (1R,4R)-4-(5-((1-((1S,2S)-2-cyanocyclohexyl)-4-oxo-4,5-dihydro-1H-pyrazolo[4,3-c]pyridin-3-yl)amino)-1,1-dioxidobenzo[d]isothiazol-2(3H)-yl)cyclohexanecarboxylic acid], the values for the IC50 on JAK1 and on JAK2 were 0.059 nM and 0.14 nM, respectively.

As for `Cc1cc(Nc2nn([C@@H]3CCCCC[C@H]3C#N)c3cc[nH]c(=O)c23)ccc1C(O)C(F)(F)F` (single isomer, unassigned) [Example 15-67, (1R,2R or 1S,2S)-2-[3-({3-methyl-4-[(1S or 1R)-2,2,2-trifluoro-1-hydroxyethyl]phenyl}amino)-4-oxo-4,5-dihydro-1H-pyrazolo[4,3-c]pyridin-1-yl]cycloheptanecarbonitrile], the figures for the IC50 at JAK1 and at JAK2 were 0.38 nM and 3.9 nM, respectively.

As to `N#C[C@H]1CCCC[C@@H]1n1nc(Nc2ccc(C(=O)N3CCCC3)cc2)c2c(=O)[nH]ccc21` [Example 3-44, (1S,2S)-2-(4-oxo-3-{[4-(pyrrolidin-1-ylcarbonyl)phenyl]amino}-4,5-dihydro-1H-pyrazolo[4,3-c]pyridin-1-yl)cyclohexanecarbonitrile], the IC50 at JAK1 was 1.4 nM; on JAK2, 4.8 nM.

With `Cc1cc(Nc2nn([C@H]3CCCC[C@@H]3C#N)c3cc[nH]c(=O)c23)ccc1C(=O)N(C)C` [Example 3-67, 4-({1-[(1S,2S)-2-cyanocyclohexyl]-4-oxo-4,5-dihydro-1H-pyrazolo[4,3-c]pyridin-3-yl}amino)-N,N,2-trimethylbenzamide], the figures for the concentration for half-maximal inhibition (IC50) on JAK1 and on JAK2 were 0.34 nM and 0.43 nM, respectively.

For `N#C[C@H]1CCCC[C@@H]1n1nc(Nc2ccc(S(=O)(=O)NCc3ccccc3)cc2)c2c(=O)[nH]ccc21` [Example 3-19, N-benzyl-4-({1-[(1S,2S)-2-cyanocyclohexyl]-4-oxo-4,5-dihydro-1H-pyrazolo[4,3-c]pyridin-3-yl}amino)benzenesulfonamide], the IC50 at JAK1 stood at 0.21 nM; at JAK2, 1.2 nM.

Regarding `CC(C)(C)NS(=O)(=O)c1ccc(Nc2nn([C@H]3CCCC[C@@H]3C#N)c3cc[nH]c(=O)c23)cc1` [Example 3-140, N-tert-butyl-4-({1-[(1S,2S)-2-cyanocyclohexyl]-4-oxo-4,5-dihydro-1H-pyrazolo[4,3-c]pyridin-3-yl}amino)benzenesulfonamide], the IC50 is 0.17 nM on JAK1 and 0.43 nM on JAK2.

Take `N#C[C@H]1C[C@H](N2CCC2)CC[C@@H]1n1nc(Nc2ccc(C(F)(F)F)cc2)c2c(=O)[nH]ccc21` [Example 5-7, (1S,2S,5R)-5-(azetidin-1-yl)-2-(4-oxo-3-((4-(trifluoromethyl)phenyl)amino)-4,5-dihydro-1H-pyrazolo[4,3-c]pyridin-1-yl)cyclohexanecarbonitrile]: the IC50 at JAK1 was 1.4 nM; on JAK2, 60 nM.

Turning to `N#C[C@H]1CCCC[C@@H]1n1nc(Nc2ccc(Cl)cc2)c2c(=O)[nH]ccc21` [Example 3-91, (1S,2S)-2-(3-((4-chlorophenyl)amino)-4-oxo-4,5-dihydro-1H-pyrazolo[4,3-c]pyridin-1-yl)cyclohexanecarbonitrile], the figures for the IC50 at JAK1 and on JAK2 were 0.45 nM and 10.3 nM, respectively.

By IC50 is commonly meant the point on the concentration scale where inhibition reaches its midpoint.
